In US20210355107A1, “MULTI-SUBSTITUTED PYRIDONE DERIVATIVES AND MEDICAL USE THEREOF” (Beijing Yuezhikangtai Biomedicines Co., Ltd., priority 2018, published 2021):

Tests used:
Ba/F3 Axl cells = target: T1, Ba/F3 Axl cells (Homo sapiens, UniProt P30530); experiment: Ba/F3 Axl cell proliferation, CellTiter-Glo Luminescent Cell Viability Assay; type: cell-based; conditions: read-out: IC50 (nM) against Ba/F3 Axl cells, 100 ng/mL rhGas6, 72 h incubation
T1 sequence (P30530 1-894): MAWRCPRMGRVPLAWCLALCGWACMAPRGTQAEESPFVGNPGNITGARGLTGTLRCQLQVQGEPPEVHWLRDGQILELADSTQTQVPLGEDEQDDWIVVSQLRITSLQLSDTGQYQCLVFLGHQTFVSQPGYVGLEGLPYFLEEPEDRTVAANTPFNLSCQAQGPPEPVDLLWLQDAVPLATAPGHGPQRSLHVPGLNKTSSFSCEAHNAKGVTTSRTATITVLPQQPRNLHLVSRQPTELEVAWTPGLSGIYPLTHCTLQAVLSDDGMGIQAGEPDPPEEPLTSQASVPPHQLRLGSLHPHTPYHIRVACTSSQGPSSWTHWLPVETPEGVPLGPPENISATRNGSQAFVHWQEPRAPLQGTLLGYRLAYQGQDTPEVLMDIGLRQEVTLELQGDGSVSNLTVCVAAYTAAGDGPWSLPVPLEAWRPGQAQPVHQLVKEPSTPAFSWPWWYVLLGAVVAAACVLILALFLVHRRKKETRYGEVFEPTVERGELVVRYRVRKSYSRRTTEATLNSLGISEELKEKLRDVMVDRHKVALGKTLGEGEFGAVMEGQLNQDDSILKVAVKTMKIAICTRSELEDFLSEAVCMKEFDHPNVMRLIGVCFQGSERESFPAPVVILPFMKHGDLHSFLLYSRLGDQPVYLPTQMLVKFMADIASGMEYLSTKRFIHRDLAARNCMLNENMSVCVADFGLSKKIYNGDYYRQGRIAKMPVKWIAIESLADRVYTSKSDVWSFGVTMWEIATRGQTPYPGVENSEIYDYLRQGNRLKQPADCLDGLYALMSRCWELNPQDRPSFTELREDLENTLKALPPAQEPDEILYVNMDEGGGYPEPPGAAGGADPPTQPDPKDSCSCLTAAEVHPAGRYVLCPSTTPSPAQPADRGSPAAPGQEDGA
Method: Test method: the inhibitory activity of the compounds against Ba/F3 Axl cell proliferation was evaluated using CellTiter-Glo® Luminescent Cell Viability Assay Kit (Promega).
Test procedures: when thawing Ba/F3 Axl cells, the cell cryopreservation tube was shaken rapidly in a water bath at 37° C. to thaw the cells in 1 min. The cell suspension after thawing was mixed with RPMI1640 culture medium containing 10% FBS and centrifuged for 5 min at 1000 rpm, and the supernatant was discarded. The cell pellet was suspended in 5 mL of complete culture medium. […] Cell passage was performed at a cell density of 2×10^6 viable cells/mL. When the cells were passaged, the original cell suspension was directly made uniform by pipetting. 1/10 (namely 0.5 mL) of the cell suspension was kept, added with 4.5 mL of new complete culture medium and then made uniform by pipetting. The cell culture flask was then placed in a cell incubator for further culturing. Cell plating was performed when the cell confluence reached 2×10^6 viable cells/mL again. With reference to the method for cell passage, 1/10 (namely 0.5 mL) of the cell suspension was kept for further culturing when the cells were plated, and the remaining cell suspension was placed in a 15 mL centrifuge tube. The supernatant was discarded after centrifugation, and 5 mL of complete culture medium was used to resuspend the cells. […] A control group that contains no cell or compound but only complete culture medium and a control group that contains no compound but cells were set. The cell plates were incubated overnight in a cell incubator. […] The cell plates were then incubated in the cell incubator for 72 h. […] The cell plate was left to stand at room temperature for 20 min to stabilize luminescence signals, and the luminescence value of each well was scanned by a Spectramax M3 multi-functional microplate reader (Molecular Devices) at full wavelength.
Test samples: example compounds of the present invention and bemcentinib (positive control compound).
Data analysis: cell viability was calculated for compounds at various concentrations using the following formula:
Cell viability(%)=(Lumtest compound−Lumculture solution control)/(Lumcell control−Lumculture solution control)×100%,
where Lum refers to the luminescence value of each well of the test compound plate read by the multi-functional microplate reader.
The data were analyzed using GraphPad Prism 7.0 software, fitted with nonlinear S-curve regression to give dose-response curves, and IC50 values were calculated therefrom.

tyrosine kinase Tyro3 = target: T2, tyrosine kinase Tyro3 (Homo sapiens, UniProt Q06418); experiment: HTRF assay, inhibitory activity against tyrosine kinase Tyro3; type: biochemical; conditions: ATP at Km (50 μM), two duplicate wells
T2 construct: purchased Carna 08-109
T2 sequence (Q06418 453-890 limits assumed): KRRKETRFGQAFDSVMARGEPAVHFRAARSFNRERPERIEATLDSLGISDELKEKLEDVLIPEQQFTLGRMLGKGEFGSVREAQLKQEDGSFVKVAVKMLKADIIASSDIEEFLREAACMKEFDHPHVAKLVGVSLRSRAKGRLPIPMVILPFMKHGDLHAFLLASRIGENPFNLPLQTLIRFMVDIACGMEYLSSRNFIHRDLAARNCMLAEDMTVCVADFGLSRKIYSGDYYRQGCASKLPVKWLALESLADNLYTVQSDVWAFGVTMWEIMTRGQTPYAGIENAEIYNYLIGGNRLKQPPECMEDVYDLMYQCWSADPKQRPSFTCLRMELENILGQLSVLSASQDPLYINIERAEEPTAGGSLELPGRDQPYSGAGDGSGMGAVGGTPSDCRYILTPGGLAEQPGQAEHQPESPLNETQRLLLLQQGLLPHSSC
Method: (§1) Test Example 2: Evaluation of Inhibitory Activity (IC50) of Compounds disclosed herein against Tyrosine Kinases Mer and Tyro3
(§2) In this test, HTRF method was used to test the inhibitory activity of compounds when ATP concentrations correspond to the Km of the kinases. The control substance was RXDX-106. The concentration of test compound was 3-fold diluted from an initial concentration of 10 μM, and two duplicate wells were set.
(§3) Kinase Mer (Carna, Cat. No. 08-108, Lot. No. 14CBS-0421H); Tyro3 (Carna, Cat. No. 08-109, Lot. No. 08CBS-1186H); HTRF kinase-TK kit (Cisbio, Cat. No. 62TK0PEC), the kit comprising: biotin-TK substrate lyophilized powder (Cisbio, Cat. No. 61TK0BLC, Lot. No. 07A), streptavidin-XL665 (Cisbio, Cat. No. 610SAXLG, Lot. No. 126A), TK antibody-cryptate (Cisbio, Cat. No. 610SAXLG, Lot. No. 04A), and detection buffer (including EDTA) (Cisbio, Cat. No. 62TK0PEC, Lot. No. 12A); ATP (Sigma, Cat. No. A7699-5G, CAS No. 34369-07-8, Lot. No. SLBQ6014V); DMSO (Sigma, Cat. No. D5879-1L, Lot. No. SHBH9944); HEPES (Sigma, Cat. No. V900477-500G, CAS No. 7365-45-9, Lot. No. WXBC4716V); MgCl2 (Sigma, Cat. No. 208337-1KG, Lot. No. MKBX9508V); EGTA (Sigma, Cat. No. E3889-100g, CAS 67-42-5, […], Lot. No. SLBG8546V); NP-40 (Beijing Dingguo, Cat. No. DH218, Lot. No. 36R00160); DTT (Sigma, Cat. No. D0632-25g, CAS No. 3483-12-3, Lot. No. SLBF3964V); compound plate (Labcyte, Cat. No. LP0200, Lot. No. 0006386836); assay plate (Greiner, Cat. No. 784075, Lot. No. E16123HM); control substance RXDX-106 (prepared according to the method disclosed in patent WO2013074633).
(§4) 1) Preparation of a buffer: 50 mM HEPES, 10 mM MgCl2, 1 mM EGTA, 0.01% NP-40, 2 mM DTT.
(§5) 2) Preparation of control substance and test samples: RXDX-106 and the compounds disclosed herein were each dissolved in DMSO to 10 mM and then diluted to 1 mM or an appropriate concentration with DMSO, and then serial double dilution was performed using BRAVO (Agilent). 100 nL of each was transferred from a compound plate (Labcyte-LP0200) to an assay plate (Greiner-784075) using ECHO 555 (Labcyte). The final concentration of DMSO was 1%.
(§6) 3) Mer and Tyro3 were each diluted to 0.5 nM and 1.2 nM with the detection buffer (Cisbio, Cat. No. 62TK0PEC, Lot. No. 12A). 5 μL of each was added to a 384-well plate and incubated with the compounds disclosed herein for 30 min at 22-25° C. Final concentrations of Mer and Tyro3 were 0.25 nM and 0.6 nM, respectively.
(§7) 4) Biotin-TK substrate and ATP were each diluted to a concentration twice the final concentration with 1× kinase buffer made up of HEPES, NaN3, BSA and orthovanadate. 5 μL of the mixture of substrate and ATP was added to the 384-well plate to initiate the reaction, which lasts for 1 h at 22-25° C.
(§8) 5) Streptavidin-XL665 and TK antibody-cryptate were diluted to 250 nM and 0.5 nM, respectively, with the detection buffer. […] of each of the two solutions was added to the 384-well plate to initiate the reaction, which lasts for 1 h at 22-25° C. The final concentrations of streptavidin-XL665 and TK antibody-cryptate were 125 nM and 0.25 nM, respectively.
(§9) 6) The fluorescence intensities at 665 nm and 615 nm were read with an Envision Reader (PerkinElmer) .
(§10) 7) IC50 values of the compounds were fitted with XL-fit software.

tyrosine kinase Mer = target: T3, tyrosine kinase Mer (Homo sapiens, UniProt Q12866); experiment: HTRF assay, inhibitory activity against tyrosine kinase Mer; type: biochemical; conditions: ATP at Km (30 μM), two duplicate wells
T3 construct: purchased Carna 08-108
T3 sequence (Q12866 528-999 limits assumed): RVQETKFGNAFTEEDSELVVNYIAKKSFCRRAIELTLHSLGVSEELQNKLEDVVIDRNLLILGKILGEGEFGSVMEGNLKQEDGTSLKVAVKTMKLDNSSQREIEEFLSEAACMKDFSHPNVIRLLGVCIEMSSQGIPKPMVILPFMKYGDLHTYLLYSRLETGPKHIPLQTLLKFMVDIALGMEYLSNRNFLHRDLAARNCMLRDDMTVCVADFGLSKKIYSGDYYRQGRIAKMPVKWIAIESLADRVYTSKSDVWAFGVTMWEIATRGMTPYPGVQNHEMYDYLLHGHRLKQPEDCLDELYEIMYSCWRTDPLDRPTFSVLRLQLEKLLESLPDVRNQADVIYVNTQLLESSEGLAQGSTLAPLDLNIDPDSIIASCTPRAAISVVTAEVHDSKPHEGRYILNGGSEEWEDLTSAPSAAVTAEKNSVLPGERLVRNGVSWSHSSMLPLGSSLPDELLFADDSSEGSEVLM
Method: as §1, §2, §3, §4, §5, §6, §7, §8, §9, §10

kinase c-MET = target: T4, kinase c-MET (Homo sapiens, UniProt P08581); experiment: Mobility shift assay, inhibitory activity against kinase c-MET; type: biochemical; conditions: ATP at Km (35 μM), average of two independent experiments
T4 construct: purchased Carna 08-151
Method: (§11) In this test, mobility shift assay was used to test the inhibitory activity of compounds when ATP concentrations correspond to the Km of the kinases.
(§12) The concentration of test compound was 10-fold diluted from an initial concentration of 10 μM. The test result (IC50) was the average of two independent experiments.
(§13) For example, a compound at an initial concentration of 10 μM was adjusted to 500 μM with 100% DMSO, then serially diluted for 10 concentrations, and then subjected to 10-fold dilution with the buffer to prepare a diluted compound intermediate containing 10% DMSO, 5 μL of which was transferred to the 384-well plate.
(§14) 10 μL of the two enzyme solutions each was added to the 384-well plate and co-incubated with the compound for 10-15 min at room temperature.
(§15) 10 μL of the diluted substrate was added to the 384-well plate to initiate the reaction, which lasts for 1 h at 28° C.
(§16) 5) The conversion rate was read by Caliper Reader (Perkin Elmer) and the inhibition rate was calculated as the average of two tests.
(§17) 6) IC50 values were fitted with XL-fit software.

kinase Axl = target: T5, kinase Axl (Homo sapiens, UniProt P30530); experiment: Mobility shift assay, inhibitory activity against kinase Axl; type: biochemical; conditions: ATP at Km (81 μM), average of two independent experiments
T5 construct: purchased Carna 08-107
T5 sequence (P30530 473-894 limits assumed): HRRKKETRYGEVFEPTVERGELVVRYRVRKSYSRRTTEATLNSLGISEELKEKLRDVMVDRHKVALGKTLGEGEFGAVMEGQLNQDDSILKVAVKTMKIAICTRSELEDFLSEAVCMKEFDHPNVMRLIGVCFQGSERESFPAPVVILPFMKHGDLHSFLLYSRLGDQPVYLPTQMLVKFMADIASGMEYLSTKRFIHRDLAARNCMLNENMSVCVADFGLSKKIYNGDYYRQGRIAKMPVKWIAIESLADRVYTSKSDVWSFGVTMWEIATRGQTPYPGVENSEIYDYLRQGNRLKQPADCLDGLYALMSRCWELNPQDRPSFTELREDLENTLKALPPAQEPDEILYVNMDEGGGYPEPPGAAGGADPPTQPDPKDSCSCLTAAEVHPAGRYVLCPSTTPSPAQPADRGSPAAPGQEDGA
Method: as §11, §12, §13, §14, §15, §16, §17

T4 sequence (P08581 956-1390 limits assumed): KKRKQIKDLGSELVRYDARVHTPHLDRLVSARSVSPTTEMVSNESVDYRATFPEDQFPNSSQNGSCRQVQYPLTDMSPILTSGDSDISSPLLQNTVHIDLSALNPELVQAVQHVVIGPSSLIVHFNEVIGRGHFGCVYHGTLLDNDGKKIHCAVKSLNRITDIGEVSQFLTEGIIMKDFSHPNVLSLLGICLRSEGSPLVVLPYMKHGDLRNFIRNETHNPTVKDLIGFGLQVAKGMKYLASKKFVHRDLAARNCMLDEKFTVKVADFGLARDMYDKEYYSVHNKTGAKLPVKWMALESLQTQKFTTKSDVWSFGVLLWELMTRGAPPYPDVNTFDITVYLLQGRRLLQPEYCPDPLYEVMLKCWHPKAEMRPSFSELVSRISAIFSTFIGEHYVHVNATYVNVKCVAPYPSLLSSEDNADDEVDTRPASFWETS

Nc1nc(Nc2ccc3c(c2)CC[C@@H](N2CCCC2)CC3)nn1-c1cc2c(nn1)-c1ccccc1CCC2 [Bemcentinib, bemcentinib, reference compound] was tested, and the GI50 (Ba/F3 Axl cells) was 26.9 nM.
For CCn1cc(-c2cnc(N)c(-c3ccc(NC(=O)c4cn(C5CCC5)c(C#N)c(-c5ccc(F)cc5)c4=O)cc3F)c2)cn1 [Example 9, N-(4-(2-amino-5-(1-ethyl-1H-pyrazol-4-yl)pyridin-3-yl)-3-fluoro-phenyl)-6-cyano-5-(4-fluorophenyl)-1-cyclobutyl-4-oxo-1,4-dihydropyridine-3-carboxamide], the IC50 (tyrosine kinase Tyro3) was 3 nM, the IC50 (tyrosine kinase Mer) was 1.3 nM and the IC50 (kinase c-MET) was 70 nM. It also gave an IC50 (kinase Axl) of 4.6 nM.
